According to ChEMBL document CHEMBL3507680, “University of Dundee, Gates Library screen for HepG2 cell viability”:

assay: Human HepG2 cell viability assay in 384 well format; assay type: toxicity, cell-based; parameters: dose 125 nL, time 70.5 hour; cytotoxicity at 70.5 h: concentration not given beside the values; settings: HepG2 cells, read-out: Inhibition

SMILES	cytotoxicity at 70.5 h [%]
O=C(Cc1cccnc1)N1CCCC(c2cc(C(F)(F)F)[nH]n2)C1 (configuration not stated)	-2.42
CC(NC(=O)NCC1(O)CCC1)c1ccc(OCC2CC2)c(F)c1 (configuration not stated)	-12
Cn1nnnc1SCCNC1CCN(c2ccc3c(c2)OCO3)CC1	4.51
CCN(c1ccc(C(=O)Nc2c(C)nn(C(C)C)c2C)cc1)C(C)C	-7.4
CN(C)C(=O)CN1C[C@H]2CCN(Cc3ccccc3)CC[C@H]2S1(=O)=O	-8.74
CC1(C(=O)NCCCOc2ccccc2F)CC(=O)N2C=CC=CC2=N1 (configuration not stated)	0.00385
Cn1ncc(C(=O)N2CCN(C(=O)c3ccco3)CC2)c1Cl	-13.4
CC(C)c1noc([C@@H]2Cc3[nH]cnc3CN2C(=O)Nc2ccccc2)n1	9.88
O=C1CO[C@H]2CN(Cc3cccnc3)C[C@H]2N1	-1.16
CC(C(=O)NCc1ccc(N2CCCCC2)nc1)n1cncn1 (configuration not stated)	-3.82
CCOc1ncccc1C(=O)N1CCCC1c1c(C)nn(C)c1Cl (configuration not stated)	11.9
Cc1cc(C)n(CC2CN(Cc3cccc(C(N)=O)c3)CCO2)n1 (configuration not stated)	6.91
CC(C)c1nccn1C1CCCN(C(=O)CCc2cscn2)C1 (configuration not stated)	-6.33
Cc1cccc(OCC(O)CN2CCN(c3nccs3)CC2)c1 (configuration not stated)	-3.61
c1ccc(NCc2cnc3n2CCN(CC2CCOC2)CC3)nc1 (configuration not stated)	-8.55
COc1c(CNCc2ccccc2Cn2ccnc2)c(C)nn1C	-0.234
COCC(=O)N1CCC[C@]2(C(=O)N(C)C)CN(c3ccccn3)C[C@@H]2C1	-5.67
CCN1CCC2(CC1)NC(=O)c1cc(Br)ccc1-n1nnnc12	-5.39
O=C(Nc1ccccn1)N(CCO)Cc1ccsc1	4.99
Cn1cc(C(=O)N2CCSc3ccccc32)ccc1=O	3.72
COc1coc(CN2CCCC(CCc3ccc(F)c(F)c3)C2)cc1=O (configuration not stated)	15.5
Cc1sc2nc(C(F)(F)F)nc(N3CCC(NS(C)(=O)=O)CC3)c2c1C	-5.38
Cc1nc(-c2cccc(C#N)c2)nn1CC1(O)CCCCC1	3.88

SMILES	cytotoxicity at 70.5 h [%]
CCc1ccc(NC(=O)c2n[nH]c(-n3cnnc3)n2)cc1	-6.66
CC(C)Cn1cnnc1C1CCCN1C(=O)c1ccc(F)cc1F (configuration not stated)	-2.82
CC(=O)c1ccc(-n2c(C)cn(CCC(=O)NC(N)=O)c2=O)cc1	-14.8
FC(F)(F)c1nc(NC2CCc3ncnn3C2)c2ccccc2n1 (configuration not stated)	24.8
CCCS(=O)(=O)N1CCN(c2cc(-n3ccnc3)nc(C)n2)CC1	-3.96
CNc1cc2c(nn1)CCN(C(=O)c1cccc3c1OCO3)C2	-16.7
COC(=O)CCN(C)C(=O)c1csc(Cc2ccccc2F)n1	0.501
Cc1nc(NCCSc2cnn[nH]2)c2c(C)noc2n1	7.78
Cc1cc2c(cc1Cl)C=CC1(CCN(C(=O)N3CCOCC3)CC1)O2	22
CCc1nc(C2CCCN2C(=O)c2ccc3c(c2)nnn3CC)no1 (configuration not stated)	-3.25
OC(c1ccccc1)C1CCN(Cc2csc(-c3ncccn3)n2)CC1 (configuration not stated)	-7.96
O=C1C(NCc2ccccc2O)CCN1Cc1ccccc1 (configuration not stated)	18.3
O=C(O)c1ccc(=O)n(CC(c2ccc(F)cc2)N2CCCCCC2)c1 (configuration not stated)	-7.77
CC(Cc1ccco1)NC(=O)Nc1cnn(CC(N)=O)c1 (configuration not stated)	-1.8
CC(CO)(NC(=O)Nc1nnc(C(F)F)s1)C1CC1 (configuration not stated)	4
CCOCC(=O)N1CCC2(CC1)COCCN2CCOC	-1.68
CC(C)C(=O)N1CCCC1c1nc(N(C)C)ncc1-c1ccc(Cl)cc1 (configuration not stated)	6.28
CCn1cc(CN2CCC(O)(Cn3nc(C)ccc3=O)CC2)cn1	-4.18
O=C(c1ccc(F)cc1Cl)N1CCn2c(nnc2C(F)(F)F)C1	1.4
Cc1cc(CN2CCC(CNS(=O)(=O)c3ccc(C)s3)CC2)c(C)o1	-5.87
O=C(NCCCOCC1CCCO1)c1cccnc1N1CCOCC1 (configuration not stated)	36.7
Cc1c(NC(=O)c2ncn[nH]2)cccc1C(=O)NC(C)(C)C	-12.5
CCNC(=O)CCCC(=O)N1CCc2cc(Cl)cc(Cl)c2C1	-4.11

SMILES	cytotoxicity at 70.5 h [%]
COc1ccc(CCCC(=O)NCc2c(C)noc2C)cc1F	20
Cc1cc(NC(=O)C(C)N2CCCN(c3nccs3)CC2)on1 (configuration not stated)	-15.9
Cc1cc(CNC(=O)NCCCC(=O)N2CCc3ccccc32)no1	-2.16
O=C1CCCN1Cc1noc(-c2ccc(Cl)cc2)n1	-6.78
Cc1ccccc1C(=O)Nc1ccc([C@H]2OCC(=O)N(C)[C@@H]2CO)cc1	-0.197
O=C(C1CCCCC1)N1CCC2(COc3ncccc3S(=O)(=O)N2)C1 (configuration not stated)	-4.42
CC(C)CNC[C@H]1O[C@H](Cc2cc(-c3ccccn3)on2)CC[C@@H]1O	0.841
Cc1noc(C)c1CCC(=O)N1CCCN(Cc2cccs2)CC1	-6
COc1cccc2c1OCC(NCc1cnn(-c3ccccc3F)c1)C2 (configuration not stated)	-0.785
CO[C@@H]1CCN(Cc2cccs2)[C@@H]2CN(Cc3ccncc3)C[C@@H]21	-3.45
CCn1cc(CN2CCCN(C(=O)c3cc(C)no3)CC2)cn1	-2.69
COCCN1CCN(C(=O)NC2CC2)Cc2ccc(C)nc21	-12.1
CN(CCO)C[C@@H]1CN(Cc2ccccc2-c2ccccc2)C[C@@H]1CO	-2.36
CCc1ccc(CNC(=O)NCc2nnc3n2CCC3)s1	17.1
Clc1ccc(C2(CNC3=NCCN3)CC2)cc1	10
CCc1nc(CCNC(=O)Nc2cc(C(N)=O)ccc2OC)cs1	-12.4
Cc1cc(C)nc(NCCC(=O)NCCn2ccc3ccccc32)n1	5.63
CCN(Cc1noc(CC(C)C)n1)C[C@]1(O)CCCN2CCCC[C@@H]21	-11.7
COc1ccc(Br)cc1CC(=O)N1CCCC1	-5.85
O=C(c1cscn1)N1CC[C@@H]2[C@@H]1CCN2CC1CCOC1 (some centres not stated)	-1.02
CC(C)(C)C(NC(=O)CCS(C)(=O)=O)c1ccc(F)cc1F (configuration not stated)	-6.93
CCC1c2ccc(C)n2CCN1C(=O)Cn1cnc2sc(C)cc2c1=O (configuration not stated)	-5.17
Cc1cc(CN2CCOCS2(=O)=O)ccc1F	-7.79

SMILES	cytotoxicity at 70.5 h [%]
CCn1ncc2c1CCCC2NCc1ccc(OC)c(F)c1 (configuration not stated)	-9.63
CN(Cc1cccs1)Cc1nnsc1Cl	-4.68
COCCCNC(=O)C1CCN(CC2(O)CCC(C)CC2)CC1 (configuration not stated)	-3.99
Cc1cc(N2CCCN3CCC[C@H]3C2)n2nc(C)c(C)c2n1	-4.24
O=C(NS(=O)(=O)c1cnn(-c2ccccc2F)c1)c1ccco1	1.58
CCCc1n[nH]c(C2CN(C(=O)c3cncnc3C)CCO2)n1 (configuration not stated)	3.13
Cc1cnc(N2CC[C@@H]3O[C@@H](COCc4ccccn4)CC[C@@H]32)nc1	-8.03
O=C(c1cnc2ccc(F)cc2c1NCc1ccccn1)N1CCCC1	-17.9
CC(C)N1CC(C(=O)NCCOc2ccc3c(c2)OCO3)CC1=O (configuration not stated)	1.18
CC(C)n1[nH]c(=O)c2c1NC(=O)CC2c1cccc(O)c1 (configuration not stated)	-9.65
CC(C)c1cc(CN(C)C(=O)CN2CCNC2=O)no1	18.6
O=C(C1CCCO1)N1CCC(Cn2cc(C3CCCC3)nn2)CC1 (configuration not stated)	2.36
CCc1[nH]ncc1C(=O)N1CCOC(c2nc(C)n[nH]2)C1 (configuration not stated)	-2.8
CC(Cn1cccn1)NCc1nc(-c2cccnc2)no1 (configuration not stated)	-3.96
O=C(C1CC(=O)N(c2ccccc2Br)C1)N1CCCCCC1 (configuration not stated)	11.2
CN1CCOC(CNCC(=O)NCCc2ccc(F)cc2)C1 (configuration not stated)	-3.15
CNC(=O)c1cnc(/C=C/c2ccc(O)c(OC)c2)s1	-14.3
Cc1ccc2nc(CN3CCCCC3CCn3cccn3)cn2c1 (configuration not stated)	6.68
CCOC(=O)CN1C[C@@H]2OCCN(c3ncc(F)cn3)[C@@H]2C1	21.2
CCOCCCNC(=O)c1cn(CC)nc1C	-8.03
O=c1c(NCCc2ccc(O)cc2)c(NCc2ccncc2)c1=O	-0.102
Cc1cccc(N2CCC(N3CCC4(CN(C)C(=O)O4)C3)CC2)c1C (configuration not stated)	-9.4
O=C(c1ccc(NC2CC2)nc1)N1CCCC(n2ccnc2)C1 (configuration not stated)	-12.9

SMILES	cytotoxicity at 70.5 h [%]
CO[C@H]1CN(C(=O)OC(C)(C)C)CC1NCc1cccn1C (some centres not stated)	-8.94
Cc1cc(C)c(CNC(=O)NCc2ccncc2)c(=O)[nH]1	-0.477
O=C(Cc1ccccc1)N1CCC2(CC1)COCCN2CC1CC1	-9.82
Cc1nc(-c2ccc(C(=O)O)cc2)cc(C2CCN(C(C)C)CC2)n1	12.2
COc1c(C2CCCN2CCOc2ccccc2C#N)c(C)nn1C (configuration not stated)	-0.493
Nc1cc(CCC2CN(Cc3ccc4cc[nH]c4c3)CCO2)ccn1 (configuration not stated)	20.8
N#Cc1ccccc1C(=O)N1C[C@H]2CC[C@@H]1CN(c1ncccn1)C2	18.3
CN1CCN([C@@H]2CN(C(=O)Cc3ccsc3)[C@@H]3CCCO[C@H]23)CC1	-4.38
Cc1cc(-c2c(C)c(-c3cnn(C)c3)nc(N)c2C#N)oc1C	37.4
Cc1nc(CN2CCCC(N(C)Cc3cscn3)C2)no1 (configuration not stated)	4.42
COc1cc(C2(C(=O)N3CCN(CC(C)O)CC3)CC2)ccc1C (configuration not stated)	10.5
Cc1noc(C)c1C(=O)NCc1ccc(N2CCOCC2)nc1	-8.43
CC(C)OCCCNS(=O)(=O)c1ccc2c(c1)NC(=O)C(C)O2 (configuration not stated)	-4.7
O=C(Cc1ccccn1)N1CCc2ncnc(N3CCCC3)c2CC1	-0.341
CCO[C@@H]1CCN(C(=O)N(C)C)[C@@H]1Cc1cnn(C)c1	-10.7
O=C(Cn1ccc2ccccc21)NCc1cc(N2CCOCC2)ncn1	-1.81
CC(C)CCN(C)C(=O)c1nc(S(C)(=O)=O)n2ccccc12	4.51
CCN1CCCCC1C(=O)N1CCc2onc(-c3ccc(Cl)cc3)c2C1 (configuration not stated)	-12.9
O=C(Nc1ccc(F)cc1F)Nc1c[nH]c(=O)[nH]c1=O	-14.5
CN(C)c1cc(CNC(=O)c2cc(Cl)ccn2)ccn1	-11.8
